US12636285B2 (ViiV Healthcare Company, priority 2019, dated 2026)
Counter-ions that a name gives are not always drawn.

Tests used:
[1] = Drug interaction studies with oral rilpivirine
[2] = Solubility in water; assay type: physicochemical
From the text: The cabotegravir tablet contains cabotegravir, as cabotegravir sodium. […] The tablet film-coating contains hypromellose, polyethylene glycol, and titanium dioxide.

[3] = Drug interaction studies with oral cabotegravir; settings: cabotegravir 30 mg once daily; No Effect = 1.00
[4] = Established and other potentially significant drug interactions (Table 5); settings: trial-based or predicted
[5] = rilpivirine 150 mg once daily, No Effect = 1.00
[6] = rilpivirine 25 mg once daily, No Effect = 1.00
[7] = rilpivirine 75 mg once daily, No Effect = 1.00

## CC(C)c1c(C(=O)Nc2ccc(O)cc2)c(-c2ccccc2)c(-c2ccc(F)cc2)n1CC[C@@H](O)C[C@@H](O)CC(=O)O [4-hydroxy-atorvastatin]
[1]; [5]
  Geometric Mean Ratio of coadministered drug AUC with/without EDURANT: 1.23
  Geometric Mean Ratio of coadministered drug Cmax with/without EDURANT: 1.28

## CO[C@H]1/C=C/O[C@@]2(C)Oc3c(C)c(O)c4c(O)c(c(/C=N/N5CCN(C)CC5)c(O)c4c3C2=O)NC(=O)/C(C)=C\C=C\[C@H](C)[C@H](O)[C@@H](C)[C@@H](O)[C@@H](C)[C@H](O)[C@@H]1C [25-desacetylrifampin]
[1]; [5]
  Geometric Mean Ratio of coadministered drug AUC with/without EDURANT: 0.91
  Geometric Mean Ratio of coadministered drug Cmax with/without EDURANT: 1.00

## CC(=O)Nc1ccc(O)cc1 [Acetaminophen]
[1]; [5]
  Geometric Mean Ratio of coadministered drug AUC with/without EDURANT: 0.91
  Geometric Mean Ratio of coadministered drug Cmax with/without EDURANT: 0.97

## C[C@H]1CO[C@@H]2Cn3cc(C(=O)NCc4ccc(F)cc4F)c(=O)c(O)c3C(=O)N12 [Cabotegravir sodium]
[2]
  solubility in water: slightly soluble

## O=c1[nH]cnc2c1ncn2[C@H]1CC[C@@H](CO)O1 [Didanosine]
[1]; [5]
  Geometric Mean Ratio of coadministered drug AUC with/without EDURANT: 1.12
  Geometric Mean Ratio of coadministered drug Cmax with/without EDURANT: 0.96

## C[C@H]1O[C@@H](O[C@H]2[C@@H](O)C[C@H](O[C@H]3[C@@H](O)C[C@H](O[C@H]4CC[C@@]5(C)[C@H](CC[C@@H]6[C@@H]5C[C@@H](O)[C@]5(C)[C@@H](C7=CC(=O)OC7)CC[C@]65O)C4)O[C@@H]3C)O[C@@H]2C)C[C@H](O)[C@@H]1O [Digoxin]
[1]; [6]
  Geometric Mean Ratio of coadministered drug AUC with/without EDURANT: 0.98
  Geometric Mean Ratio of coadministered drug Cmax with/without EDURANT: 1.06

## C#C[C@]1(O)CC[C@H]2[C@@H]3CCc4cc(O)ccc4[C@H]3CC[C@@]21C [Ethinyl estradiol]
[3]
  Geometric Mean Ratio of AUC of coadministered drug with/without cabotegravir: 1.02
  Geometric Mean Ratio of Cmax of coadministered drug with/without cabotegravir: 0.92
  Geometric Mean Ratio of Cτ or C24 of coadministered drug with/without cabotegravir: 1.00
[1]; [6]
  Geometric Mean Ratio of coadministered drug AUC with/without EDURANT: 1.14
  Geometric Mean Ratio of coadministered drug Cmax with/without EDURANT: 1.17
  Geometric Mean Ratio of coadministered drug Cmin with/without EDURANT: 1.09

## CC(=O)N1CCN(c2ccc(OCC3COC(Cn4ccnc4)(c4ccc(Cl)cc4Cl)O3)cc2)CC1 (stereo not drawn) [Ketoconazole]
[1]; [5]
  Geometric Mean Ratio of coadministered drug AUC with/without EDURANT: 0.76
  Geometric Mean Ratio of coadministered drug Cmax with/without EDURANT: 0.85
  Geometric Mean Ratio of coadministered drug Cmin with/without EDURANT: 0.34

## C#C[C@]1(O)CC[C@H]2[C@@H]3CCC4=CC(=O)CC[C@@H]4[C@H]3CC[C@@]21CC [Levonorgestrel]
[3]
  Geometric Mean Ratio of AUC of coadministered drug with/without cabotegravir: 1.12
  Geometric Mean Ratio of Cmax of coadministered drug with/without cabotegravir: 1.05
  Geometric Mean Ratio of Cτ or C24 of coadministered drug with/without cabotegravir: 1.07

## CN(C)C(=N)N=C(N)N [Metformin]
[1]; [6]
  Geometric Mean Ratio of coadministered drug AUC with/without EDURANT: 0.97
  Geometric Mean Ratio of coadministered drug Cmax with/without EDURANT: 1.02

## CCC(=O)C(CC(C)N(C)C)(c1ccccc1)c1ccccc1 (stereo not drawn) [Methadone]
[4]; with narcotic analgesic methadone
  Effect on Concentration: ↓Methadone
[1]; rilpivirine 25 mg once daily, comparison based on historic controls
  rilpivirine Cmin with/without coadministered drug: ↔^b

## Cc1ncc2n1-c1ccc(Cl)cc1C(c1ccccc1F)=NC2 [Midazolam]
[3]
  Geometric Mean Ratio of AUC of coadministered drug with/without cabotegravir: 1.10
  Geometric Mean Ratio of Cmax of coadministered drug with/without cabotegravir: 1.09

## CCCc1nn(C)c2c(=O)[nH]c(-c3cc(S(=O)(=O)N4CCNCC4)ccc3OCC)nc12 [N-desmethyl-sildenafil]
[1]; [7]
  Geometric Mean Ratio of coadministered drug AUC with/without EDURANT: 0.92
  Geometric Mean Ratio of coadministered drug Cmax with/without EDURANT: 0.90

## C#C[C@]1(O)CC[C@H]2[C@@H]3CCC4=CC(=O)CC[C@@H]4[C@H]3CC[C@@]21C [Norethindrone]
[1]; [6]
  Geometric Mean Ratio of coadministered drug AUC with/without EDURANT: 0.89
  Geometric Mean Ratio of coadministered drug Cmax with/without EDURANT: 0.94
  Geometric Mean Ratio of coadministered drug Cmin with/without EDURANT: 0.99

## Cc1nnc(C(=O)NC(C)(C)c2nc(C(=O)NCc3ccc(F)cc3)c(O)c(=O)n2C)o1 [Raltegravir]
[1]; [6]
  Geometric Mean Ratio of coadministered drug AUC with/without EDURANT: 1.09
  Geometric Mean Ratio of coadministered drug Cmax with/without EDURANT: 1.10
  Geometric Mean Ratio of coadministered drug Cmin with/without EDURANT: 1.27

## CO[C@H]1/C=C/O[C@@]2(C)Oc3c(C)c(O)c4c(c3C2=O)C2=NC3(CCN(CC(C)C)CC3)NC2=C(NC(=O)/C(C)=C\C=C\[C@H](C)[C@H](O)[C@@H](C)[C@@H](O)[C@@H](C)[C@H](OC(C)=O)[C@@H]1C)C4=O [Rifabutin]
[4]; with antimycobacterial rifabutin
  Effect on Concentration: ↔Rifabutin

## CO[C@H]1/C=C/O[C@@]2(C)Oc3c(C)c(O)c4c(O)c(c(/C=N/N5CCN(C)CC5)c(O)c4c3C2=O)NC(=O)/C(C)=C\C=C\[C@H](C)[C@H](O)[C@@H](C)[C@@H](O)[C@@H](C)[C@H](OC(C)=O)[C@@H]1C [Rifampin]
[1]; [5]
  Geometric Mean Ratio of coadministered drug AUC with/without EDURANT: 0.99
  Geometric Mean Ratio of coadministered drug Cmax with/without EDURANT: 1.02

## CCCc1nn(C)c2c(=O)[nH]c(-c3cc(S(=O)(=O)N4CCN(C)CC4)ccc3OCC)nc12 [Sildenafil]
[1]; [7]
  Geometric Mean Ratio of coadministered drug AUC with/without EDURANT: 0.97
  Geometric Mean Ratio of coadministered drug Cmax with/without EDURANT: 0.93

## CC(C)OC(=O)OCOP(=O)(CO[C@H](C)Cn1cnc2c(N)ncnc21)OCOC(=O)OC(C)C [Tenofovir disoproxil fumarate]
[1]; [5]
  Geometric Mean Ratio of coadministered drug AUC with/without EDURANT: 1.23
  Geometric Mean Ratio of coadministered drug Cmax with/without EDURANT: 1.19
  Geometric Mean Ratio of coadministered drug Cmin with/without EDURANT: 1.24

## Lopinavir/ritonavir
[1]; [5]
  Geometric Mean Ratio of coadministered drug AUC with/without EDURANT: 0.99
  Geometric Mean Ratio of coadministered drug Cmax with/without EDURANT: 0.96
  Geometric Mean Ratio of coadministered drug Cmin with/without EDURANT: 0.89
  Geometric Mean Ratio of rilpivirine AUC with/without coadministered drug: 0.99
  Geometric Mean Ratio of rilpivirine Cmax with/without coadministered drug: 0.96
  Geometric Mean Ratio of rilpivirine Cmin with/without coadministered drug: 0.89
